Assay results as given in PMC8097972 (Journal of neurochemistry, 2020).

How the values were obtained:
mitral cells = details: cited from earlier work
Kv1.3 [1] = target: Kv1.3 (Rattus norvegicus, UniProt P15384); test: Whole-cell patch-clamp inhibition of Kv1.3 in transfected HEK293 cells; type: cell-based; details: 10 nM; T0 vs T5 (225 s); two-way mixed-design ANOVA
DIO mice [2] = test: Intraperitoneal glucose tolerance test in obese mice; type: in vivo, mouse; details: day +13 after OB pump start, 12 h fasted, vs PBS; treatment p = 0.0146
DIO mice [3] = test: Indirect calorimetry; type: in vivo, mouse; details: +2 to +12, light and dark cycle; light p = 0.496, dark p = 0.2581
Kv1.3 [4] = details: ref Knaus et al. 1995; Fadool and Levitan 1998; cited from earlier work

Kv1.3 (Rattus norvegicus, UniProt P15384), sequence (P15384 whole entry): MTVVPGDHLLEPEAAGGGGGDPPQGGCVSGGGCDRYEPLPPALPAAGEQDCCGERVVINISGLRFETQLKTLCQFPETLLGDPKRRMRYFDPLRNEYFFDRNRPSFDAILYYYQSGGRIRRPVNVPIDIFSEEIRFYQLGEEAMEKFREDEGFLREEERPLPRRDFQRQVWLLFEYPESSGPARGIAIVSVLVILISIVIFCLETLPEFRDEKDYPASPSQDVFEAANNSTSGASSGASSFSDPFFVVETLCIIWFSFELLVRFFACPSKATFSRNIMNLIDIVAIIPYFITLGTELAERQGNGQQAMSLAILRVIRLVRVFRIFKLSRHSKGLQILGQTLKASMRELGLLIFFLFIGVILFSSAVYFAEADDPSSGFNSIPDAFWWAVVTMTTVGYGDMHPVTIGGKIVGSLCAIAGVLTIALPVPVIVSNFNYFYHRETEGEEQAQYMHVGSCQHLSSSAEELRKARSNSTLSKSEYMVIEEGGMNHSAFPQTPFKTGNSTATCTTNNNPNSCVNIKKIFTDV

In the case of insulin, the “ability to increase mitral cell activity after diet-induced obesity” value (mitral cells; following diet-induced obesity, ref Fadool et al. 2011) is given as “significantly reduced”.

In the case of “QDMgTx: HisMgTx conjugated to His-PIMA-ZW capped CdSe-ZnS QDs by metal-histidine self-assembly (TIINVKCTSPKQCLPPCKAQFGQSAGAKCMNGKCKCYPH; His tag; self-assembled on CdSe-ZnS quantum dots; UniProt P40755 1-39, looked up)”, the “change in Kv1.3 peak current amplitude (in words)” value (Kv1.3 [1]) is reported as “significantly decreased Kv1.3 peak current amplitude”, the “glucose clearance (IPGTT)” value (DIO mice [2]) is reported as “cleared glucose significantly faster than control animals” and the “energy expenditure (EE)” value (DIO mice [3]) is reported as “no change in EE in either the light or dark cycle”.

In the case of “margatoxin (TIINVKCTSPKQCLPPCKAQFGQSAGAKCMNGKCKCYPH; UniProt P40755 1-39, looked up) [MgTx]”, the “koff (printed as a time)” value (Kv1.3 [4]) is given as 2 h, the “kon (in words)” value (Kv1.3 [4]) is given as “rather slow for a vestibule blocker” and the “effect on mitral cell spike firing” value (mitral cells; ref Mast and Fadool 2012, Thiebaud et al. 2016) is given as “increase the spike firing frequency and reduce the pause duration between AP trains, but have less effect on ISI”.
